Where “and” joins values, the source holds several entries; their conditions need not be identical. Equal entries are not always repeated. Entries after “also recorded” stand apart in the source; their conditions may differ. Square brackets hold non-standard residues; d marks the D form. Peptide text beside a SMILES is read from it. * marks the point of attachment. pGlu = O=C1CC[C@@H](C(=O)O)N1; Octanoyl = CCCCCCCC(=O)*
Columns and labels:
[1] = Oxygen saturation in mouse model of LPS-inflamed lungs (Rodent Pulse Oximeter); type: in vivo, Balb/C female mice; conditions: for Oxygen saturation, group mean: mean of 10 mice; for Oxygen saturation, individual mouse: single animals
Method: Evaluation of the effect of ZEP3Na administration via inhalation on oxygen saturation in a mouse model of inflamed lungs by the lipopolysaccharides (LPS) was performed. Oxygen saturation testing was performed at several time points on mice that have been anesthetized by isoflurane. A sensor was attached to the hind foot of the mice and the percentage of oxygen in the blood was measured using the Rodent Pulse Oximeter instrument (Kent Scientific).
Following LPS intratracheal instillation, a marked reduction in blood oxygen saturation levels was detected. ZEP3Na was then administered by inhalation at two doses 6 h and 14 h after LPS administration and the effect of ZEP3Na on blood oxygen saturation was monitored 0, 2, 6, 12, 24 and 48 hours following ZEP3Na administration. Saturation data was analyzed by ANOVA followed by Tukey-Kramer test. Significance level was defined as ∝=0.05.

[2] = system: B cells, T cells, eosinophils, neutrophils, macrophages/dendritic cells in BALF; assay: LPS-induced acute lung injury / ARDS mouse model: BALF differential cell count by FACS; type: in vivo, BALB/c mice; conditions: for B cells (%) / Eosinophils (%) / Macrophages & dendritic cells (%) / Neutrophils (%) / T cells (%): no LPS, BALF
Method: In order to test the efficacy of ZEP3 sodium on lung inflammation, the lipopolysaccharide (LPS)-induced acute lung injury model was used. In particular, LPS was administered intratracheally at doses of 10 or 40 mg/kg body weight (BW) corresponding to 0.2 or 0.8 mg/mouse, respectively.
ZEP3 sodium was administered by inhalation (INH) at doses of 25 or 250 mg/kg BW (0.5 or 5 mg/mouse, respectively), or intratracheally (IT) at doses of 5 or 20 mg/kg BW (0.1 or 0.4 mg/mouse, respectively) 6 hours after LPS administration and its effect was measured 72 hours following administration in the branchial alveolar fluid (BALF) using FACS instrumentation. […]

[3] = Group 2: LPS 800 μg + ZEP3Na 10 mg by inhalation at 6 h, time point 0 h
[4] = Group 2: LPS 800 μg + ZEP3Na 10 mg by inhalation at 6 h, time point 2 h
[5] = Group 2: LPS 800 μg + ZEP3Na 10 mg by inhalation at 6 h, time point 6 h
[6] = Group 2: LPS 800 μg + ZEP3Na 10 mg by inhalation at 6 h, time point 12 h
[7] = Group 2: LPS 800 μg + ZEP3Na 10 mg by inhalation at 6 h, time point 24 h
[8] = Group 2: LPS 800 μg + ZEP3Na 10 mg by inhalation at 6 h, time point 48 h
[9] = Group 3: LPS 800 μg + ZEP3Na 10 mg by inhalation at 6 h + 14 h, time point 0 h
[10] = Group 3: LPS 800 μg + ZEP3Na 10 mg by inhalation at 6 h + 14 h, time point 2 h
[11] = Group 3: LPS 800 μg + ZEP3Na 10 mg by inhalation at 6 h + 14 h, time point 6 h
[12] = Group 3: LPS 800 μg + ZEP3Na 10 mg by inhalation at 6 h + 14 h, time point 12 h
[13] = Group 3: LPS 800 μg + ZEP3Na 10 mg by inhalation at 6 h + 14 h, time point 24 h
[14] = Group 3: LPS 800 μg + ZEP3Na 10 mg by inhalation at 6 h + 14 h, time point 48 h
[15] = Group 4: LPS 800 μg + ZEP3Na 50 mg by inhalation at 6 h, time point 0 h
[16] = Group 4: LPS 800 μg + ZEP3Na 50 mg by inhalation at 6 h, time point 2 h
[17] = Group 4: LPS 800 μg + ZEP3Na 50 mg by inhalation at 6 h, time point 6 h
[18] = Group 4: LPS 800 μg + ZEP3Na 50 mg by inhalation at 6 h, time point 12 h
[19] = Group 4: LPS 800 μg + ZEP3Na 50 mg by inhalation at 6 h, time point 24 h
[20] = Group 4: LPS 800 μg + ZEP3Na 50 mg by inhalation at 6 h, time point 48 h
[21] = Group 5: LPS 800 μg + ZEP3Na 50 mg by inhalation at 6 h + 14 h, time point 0 h
[22] = Group 5: LPS 800 μg + ZEP3Na 50 mg by inhalation at 6 h + 14 h, time point 2 h
[23] = Group 5: LPS 800 μg + ZEP3Na 50 mg by inhalation at 6 h + 14 h, time point 6 h
[24] = Group 5: LPS 800 μg + ZEP3Na 50 mg by inhalation at 6 h + 14 h, time point 12 h
[25] = Group 5: LPS 800 μg + ZEP3Na 50 mg by inhalation at 6 h + 14 h, time point 24 h
[26] = Group 5: LPS 800 μg + ZEP3Na 50 mg by inhalation at 6 h + 14 h, time point 48 h
[27] = administration by inhalation, 800 μg LPS
[28] = Group 2: ZEP3Na 0.1 mg IT, group mean
[29] = Group 2: ZEP3Na 0.1 mg IT, individual mice
[30] = Group 3: ZEP3Na 0.4 mg IT, group mean

With `CCCCCCCC(=O)NCCCC[C@H](NC(=O)[C@H](Cc1c[nH]c2ccccc12)NC(=O)[C@H](CC(N)=O)NC(=O)[C@@H]1CCC(=O)N1)C(=O)O` [ZEP3Na, pGlu-Asn-Trp-Lys(Octanoyl)-ONa] ([pGlu]NWK(Octanoyl)-OH) the “Oxygen saturation, group mean” value [1, 3] was 97.2%, the “Oxygen saturation, individual mouse” value [1, 3] was 99% (4×) and 93% and 97% and 98% (2×) and 95% (2×) and the “Oxygen saturation, group mean” value [1, 4] was 70.0%. The “Oxygen saturation, individual mouse” value [1, 4] was 77% and 67% and 78% (2×) and 61% and 71% and 59% and 72% and 74% and 63%, the “Oxygen saturation, group mean” value [1, 5] was 86.2% and the “Oxygen saturation, individual mouse” value [1, 5] was 81% and 88% (2×) and 87% (2×) and 91% and 82% and 84% and 85% and 89%. For the same compound, the “Oxygen saturation, group mean” value [1, 6] was 93.5%, the “Oxygen saturation, individual mouse” value [1, 6] was 92% (2×) and 96% and 95% (2×) and 93% and 90% and 94% (3×) and the “Oxygen saturation, group mean” value [1, 7] was 89.0%. For the same compound, the “Oxygen saturation, individual mouse” value [1, 7] was 86% (2×) and 87% and 89% and 88% and 90% (2×) and 83% and 92% and 99%, the “Oxygen saturation, group mean” value [1, 8] was 92.9% and the “Oxygen saturation, individual mouse” value [1, 8] was 91% (5×) and 94% and 97% (3×) and 89%. For the same compound, the “Oxygen saturation, group mean” value [1, 9] was 96.2%, the “Oxygen saturation, individual mouse” value [1, 9] was 97% (2×) and 96% and 99% (2×) and 94% (2×) and 93% and 95% and 98% and the “Oxygen saturation, group mean” value [1, 10] was 71.1%. The “Oxygen saturation, individual mouse” value [1, 10] was 70% and 68% and 71% (2×) and 80% and 73% and 64% and 75% and 62% and 77%, the “Oxygen saturation, group mean” value [1, 11] was 87.1% and the “Oxygen saturation, individual mouse” value [1, 11] was 86% (2×) and 88% (2×) and 89% (2×) and 92% and 81% and 82% and 90%. For the same compound, the “Oxygen saturation, group mean” value [1, 12] was 92.5%, the “Oxygen saturation, individual mouse” value [1, 12] was 92% (2×) and 90% (2×) and 94% and 97% and 95% and 88% and 91% and 96% and the “Oxygen saturation, group mean” value [1, 13] was 92.1%. For the same compound, the “Oxygen saturation, individual mouse” value [1, 13] was 96% (2×) and 94% and 88% and 86% and 93% (3×) and 92% and 90%, the “Oxygen saturation, group mean” value [1, 14] was 93.0% and the “Oxygen saturation, individual mouse” value [1, 14] was 91% (4×) and 92% (2×) and 97% (2×) and 94% (2×). The “Oxygen saturation, group mean” value [1, 15] was 97.2%, the “Oxygen saturation, individual mouse” value [1, 15] was 95% (3×) and 97% (3×) and 99% (4×) and the “Oxygen saturation, group mean” value [1, 16] was 72.7%. The “Oxygen saturation, individual mouse” value [1, 16] was 69% and 81% and 72% (2×) and 73% and 79% (2×) and 65% and 66% and 71%, the “Oxygen saturation, group mean” value [1, 17] was 86.7% and the “Oxygen saturation, individual mouse” value [1, 17] was 86% (3×) and 90% and 88% (2×) and 87% (2×) and 85% and 84%. The “Oxygen saturation, group mean” value [1, 18] was 94.5%, the “Oxygen saturation, individual mouse” value [1, 18] was 93% and 89% and 94% (3×) and 95% and 96% (3×) and 98% and the “Oxygen saturation, group mean” value [1, 19] was 94.0%. For the same compound, the “Oxygen saturation, individual mouse” value [1, 19] was 93% (2×) and 94% and 95% (2×) and 90% and 99% and 92% (2×) and 97%, the “Oxygen saturation, group mean” value [1, 20] was 97.0% and the “Oxygen saturation, individual mouse” value [1, 20] was 93% and 95% and 98% (5×) and 99% and 97% and 96%. For the same compound, the “Oxygen saturation, group mean” value [1, 21] was 96.6%, the “Oxygen saturation, individual mouse” value [1, 21] was 97% (3×) and 94% (2×) and 96% and 99% (2×) and 98% and 95% and the “Oxygen saturation, group mean” value [1, 22] was 71.8%. For the same compound, the “Oxygen saturation, individual mouse” value [1, 22] was 63% and 71% and 69% and 92% and 73% and 75% and 72% and 76% and 66% and 61%, the “Oxygen saturation, group mean” value [1, 23] was 86.8% and the “Oxygen saturation, individual mouse” value [1, 23] was 88% (2×) and 90% and 84% and 89% and 86% (2×) and 85% (2×) and 87%. The “Oxygen saturation, group mean” value [1, 24] was 94.0%, the “Oxygen saturation, individual mouse” value [1, 24] was 92% and 94% (3×) and 90% and 93% and 95% (2×) and 96% and 97% and the “Oxygen saturation, group mean” value [1, 25] was 93.8%. For the same compound, the “Oxygen saturation, individual mouse” value [1, 25] was 90% and 91% (3×) and 93% (2×) and 98% (2×) and 99% and 94%, the “Oxygen saturation, group mean” value [1, 26] was 97.1% and the “Oxygen saturation, individual mouse” value [1, 26] was 99% (3×) and 97% (3×) and 91% and 98% (2×) and 96%. The “elevation in oxygen saturation levels as compared to LPS with no treatment” value [1, 27] was ≤ 20%, the “oxygen saturation levels that have been reduced by LPS” value [1, 27] was “significantly increased” and the “time following treatment at which increase in oxygen saturation is statistically significant” value ([1]; administration by inhalation, LPS model) was 12 h. For the same compound, the animal weight ([1]; throughout the experiment) was “substantially constant”, the bronchoalveolar eosinophils percentage ([2]; 0.2 mg LPS, ZEP3Na 0.1 and 0.4 mg, compared to untreated mice that received 0.2 mg LPS) was “significant decrease; also recorded: significantly inhibited” and the “B cells (%)” value [2, 28] was 0.163%. The “Eosinophils (%)” value [2, 28] was 0.412%, the “Macrophages & dendritic cells (%)” value [2, 28] was 66.715% and the “Neutrophils (%)” value [2, 28] was 6.816%. For the same compound, the “T cells (%)” value [2, 28] was 3.078%, the “B cells (%)” value [2, 29] was 0.320% and 0.208% and 0.091% and 0.218% and 0.150% and 0.089% and 0.103% and 0.162% and 0.147% and 0.138% and the “Eosinophils (%)” value [2, 29] was 0.192% and 0.556% and 0.185% and 0.196% and 0.692% and 0.058% and 0.261% and 0.828% and 0.606% and 0.546%. For the same compound, the “Macrophages & dendritic cells (%)” value [2, 29] was 69.267% and 65.626% and 66.568% and 65.527% and 65.957% and 70.380% and 68.287% and 64.068% and 65.131% and 66.345%, the “Neutrophils (%)” value [2, 29] was 8.302% and 7.056% and 4.882% and 7.770% and 5.279% and 3.207% and 3.871% and 12.158% and 8.592% and 7.044% and the “T cells (%)” value [2, 29] was 3.447% and 3.524% and 4.627% and 2.747% and 2.636% and 1.788% and 2.856% and 2.681% and 3.118% and 3.354%. The “B cells (%)” value [2, 30] was 0.176% and the “Eosinophils (%)” value [2, 30] was 0.277%.

Source: patent US20240252581A1, “COMPOSITIONS AND METHODS FOR TREATING RESPIRATORY DISTRESS” (S.I.S. SHULOV INNOVATIVE SCIENCE LTD., priority 2021, published 2024)
